We go through one compound from patent US20240294910A1, “NOVEL THERAPEUTIC AGENT FOR SEPTICEMIA, AND A METHOD FOR SCREENING FOR SAME” (Chugai Seiyaku Kabushiki Kaisha, priority 2014, published 2024).

Common to all, as to format: cell-based, mouse
One experiment relates to Arid5A mRNA. Nature of the experiment: Arid5A mRNA expression by qPCR in LPS-stimulated peritoneal macrophages. The following applies: peritoneal macrophages from C57BL/6 mice, LPS (1 g/mL), test agent 20 μM, 2 hours after LPS stimulation, vs absence of CPZ; FIG. 6. The procedure: (§1) Peritoneal macrophages from C57BL/6 mice (aged 6 to 8 weeks) were stimulated with LPS ([…]) in the presence or absence of a test agent (20 μM). The relative expression levels of mRNAs of Arid5A, IL-6, and TNF-α were determined in the stimulated peritoneal macrophages by quantitative PCR (qPCR). The expression level of Arid5A mRNA was determined 2 hours after LPS stimulation. The expression levels of IL-6 mRNA and TNF-α mRNA were determined 2 hours, 6 hours, 12 hours, and 24 hours after LPS stimulation. FIGS. 6 to 8 show the results when chlorpromazine (CPZ) was used as a test agent.
Background: In qPCR the cycle at which signal appears reflects the starting amount.

The subject of a further experiment is IL-6 mRNA. As to the kind of experiment: IL-6 mRNA expression by qPCR in LPS-stimulated peritoneal macrophages. Conditions: LPS (1 g/mL), test agent 20 μM, vs absence of CPZ, FIG. 7. The protocol:
as §1

The next experiment deals with TNF-α mRNA. Nature of the experiment: TNF-α mRNA expression by qPCR in LPS-stimulated peritoneal macrophages. The following applies: LPS (1 g/mL), test agent 20 μM, determined 2, 6, 12 and 24 hours after LPS stimulation, FIG. 8. The protocol: as §1

`CN(C)CCCN1c2ccccc2Sc2ccc(Cl)cc21` [CPZ, chlorpromazine]: in the experiment with Arid5A mRNA, the “expression of Arid5A mRNA (qPCR)” value is “markedly suppressed”. Further, the “expression of IL-6 mRNA (qPCR)” value in the experiment with IL-6 mRNA (2 hours after LPS stimulation) and with IL-6 mRNA (6 hours after LPS stimulation) was “markedly suppressed” each time. Moreover, the “expression of TNF-α mRNA (qPCR)” value with TNF-α mRNA was “no effect”.
